{"source": "patent US20100130526A1", "about": "“Methods for Disease Therapy” (priority 2008, published 2010)", "format_in_all_cases": "in vivo, human", "key": {"KPNA1 mRNA": {"test_system": "KPNA1 mRNA", "experiment": "Microarray analysis of KPNA1 mRNA expression in PBMC of malaria patients before and after chloroquine therapy", "details": "disease-decreased level (3.9-fold), p=0.0015, data set GSE5418", "text": "(§1) (See FIG. 12). […] (See FIG. 12)."}, "[1]": {"test_system": "principal components of nuclear import and inflammasome pathways", "experiment": "Gene expression phenotypes of nuclear import and inflammasome pathways in PBMC of chloroquine-treated malaria patients", "details": "PBMC of malaria patients treated with chloroquine"}, "KPNA6 mRNA": {"test_system": "KPNA6 mRNA", "experiment": "Microarray analysis of KPNA6 mRNA expression in PBMC of malaria patients before and after chloroquine therapy", "details": "data set GSE5418", "text": "as §1"}, "NLRP1 mRNA": {"test_system": "NLRP1 mRNA", "experiment": "Microarray analysis of NLRP1 mRNA expression in PBMC of malaria patients before and after chloroquine therapy", "details": "disease-decreased level (1.4-fold), p=0.016, data set GSE5418", "text": "as §1"}, "NLRP3 mRNA": {"test_system": "NLRP3 mRNA", "experiment": "Microarray analysis of NLRP3 mRNA expression in PBMC of malaria patients before and after chloroquine therapy", "details": "disease-increased level (2.7-fold), p=0.024, data set GSE5418", "text": "as §1"}}, "data": [{"smiles": "CCN(CC)CCCC(C)Nc1ccnc2cc(Cl)ccc12", "note": "(centres unmarked) [chloroquine]", "values": [{"measurement": "KPNA1 mRNA expression elevated after chloroquine therapy", "setting": "KPNA1 mRNA", "value": 66, "unit": "%"}, {"measurement": "Effect on aberrant disease-associated gene expression phenotypes (KPNA1, NLRP1, NLRP3)", "setting": "[1]", "value": "partial reversal of the aberrant gene expression phenotypes"}, {"measurement": "KPNA6 mRNA expression change after chloroquine therapy", "setting": "KPNA6 mRNA", "value": "do not manifest statistically significant changes"}, {"measurement": "NLRP1 mRNA expression elevated after chloroquine therapy", "setting": "NLRP1 mRNA", "value": 13, "unit": "%"}, {"measurement": "NLRP3 mRNA expression reduced after chloroquine therapy", "setting": "NLRP3 mRNA", "value": 57, "unit": "%"}]}]}
